# Assay results taken from ChEMBL document CHEMBL3352322, “Synthesis and biological evaluation of 3-phenethylazetidine derivatives as triple reuptake inhibitors” (Bioorg Med Chem Lett, 2014).
# Legend:
# Cytochrome P450 2C9 = Cytochrome P450 2C9 (Homo sapiens, UniProt P11712)
# [1] = target: Sodium-dependent dopamine transporter (Homo sapiens, UniProt Q01959)
# [2] = target: T1, Sodium-dependent serotonin transporter (Homo sapiens, UniProt P31645); settings: HEK293, at 0.1 µM
# Target sequence in this assay (P31645 whole entry, looked up): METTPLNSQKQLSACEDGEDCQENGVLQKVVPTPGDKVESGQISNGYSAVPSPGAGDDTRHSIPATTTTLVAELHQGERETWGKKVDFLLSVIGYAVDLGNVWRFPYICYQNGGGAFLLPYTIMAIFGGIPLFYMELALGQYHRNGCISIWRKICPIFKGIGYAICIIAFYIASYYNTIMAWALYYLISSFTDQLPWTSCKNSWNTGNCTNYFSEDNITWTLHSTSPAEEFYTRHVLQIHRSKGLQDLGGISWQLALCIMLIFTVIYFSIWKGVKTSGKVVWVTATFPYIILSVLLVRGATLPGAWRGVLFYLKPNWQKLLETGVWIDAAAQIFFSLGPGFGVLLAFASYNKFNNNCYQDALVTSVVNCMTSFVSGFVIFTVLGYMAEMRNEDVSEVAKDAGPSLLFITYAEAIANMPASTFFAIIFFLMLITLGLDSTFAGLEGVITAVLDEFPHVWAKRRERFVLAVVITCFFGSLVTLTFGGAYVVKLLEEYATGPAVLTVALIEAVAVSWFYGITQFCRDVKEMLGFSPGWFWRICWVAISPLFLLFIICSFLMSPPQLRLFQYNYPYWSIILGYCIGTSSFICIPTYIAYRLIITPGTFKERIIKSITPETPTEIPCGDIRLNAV
# [3] = target: T1, Sodium-dependent serotonin transporter; type: cell-based, HEK293
# Target sequence in this assay (P31645 whole entry): as the sequence (P31645 whole entry, looked up) above
# [4] = target: T2, Sodium-dependent noradrenaline transporter (Homo sapiens, UniProt P23975); assay: Ratio of venlafaxine IC50 to compound IC50 for norepinephrine reuptake at human NET expressed in HEK293 cells at 0.1 uM after 15 mins by fluorescence neurotransmitter transporter assay; type: cell-based
# Cytochrome P450 2D6 = Cytochrome P450 2D6 (Homo sapiens, UniProt P10635)
# [5] = target: T2, Sodium-dependent noradrenaline transporter
# [6] = target: T1, Sodium-dependent serotonin transporter; assay: Ratio of venlafaxine IC50 to compound IC50 for serotonin reuptake at human SERT expressed in HEK293 cells at 0.1 uM after 15 mins by fluorescence neurotransmitter transporter assay; type: cell-based
# Target sequence in this assay (P31645 whole entry, looked up): as above
# [7] = target: T2, Sodium-dependent noradrenaline transporter; assay: Ratio of duloxetine IC50 to compound IC50 for norepinephrine reuptake at human NET expressed in HEK293 cells at 0.1 uM after 15 mins by fluorescence neurotransmitter transporter assay; type: cell-based
# Cytochrome P450 3A4 = Cytochrome P450 3A4 (Homo sapiens, UniProt P08684)
# Chain of Cytochrome P450 3A4 (P08684 whole entry): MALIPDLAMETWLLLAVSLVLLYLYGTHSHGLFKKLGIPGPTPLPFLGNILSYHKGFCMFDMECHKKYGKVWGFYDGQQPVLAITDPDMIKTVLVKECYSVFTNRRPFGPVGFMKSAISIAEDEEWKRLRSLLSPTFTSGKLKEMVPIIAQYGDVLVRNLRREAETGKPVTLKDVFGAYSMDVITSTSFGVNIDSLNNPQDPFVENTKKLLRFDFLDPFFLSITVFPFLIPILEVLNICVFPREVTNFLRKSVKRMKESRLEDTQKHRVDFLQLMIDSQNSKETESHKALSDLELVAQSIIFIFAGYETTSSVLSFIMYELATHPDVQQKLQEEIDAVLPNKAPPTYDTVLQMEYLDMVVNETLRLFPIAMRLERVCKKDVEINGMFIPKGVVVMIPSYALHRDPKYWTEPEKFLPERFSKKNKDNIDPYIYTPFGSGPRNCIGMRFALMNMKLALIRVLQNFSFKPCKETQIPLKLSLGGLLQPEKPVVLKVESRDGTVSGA
# [8] = target: T1, Sodium-dependent serotonin transporter; assay: Ratio of duloxetine IC50 to compound IC50 for serotonin reuptake at human SERT expressed in HEK293 cells at 0.1 uM after 15 mins by fluorescence neurotransmitter transporter assay; type: cell-based
# Target sequence in this assay (P31645 whole entry, looked up): as the sequence (P31645 whole entry, looked up) above
# [9] = target: T1, Sodium-dependent serotonin transporter; settings: HEK293, at 1 µM
# Target sequence in this assay (P31645 whole entry, looked up): as above
# Cytochrome P450 1A2 = target: T3, Cytochrome P450 1A2 (Homo sapiens, UniProt P05177)
# T3 sequence (P05177 whole entry): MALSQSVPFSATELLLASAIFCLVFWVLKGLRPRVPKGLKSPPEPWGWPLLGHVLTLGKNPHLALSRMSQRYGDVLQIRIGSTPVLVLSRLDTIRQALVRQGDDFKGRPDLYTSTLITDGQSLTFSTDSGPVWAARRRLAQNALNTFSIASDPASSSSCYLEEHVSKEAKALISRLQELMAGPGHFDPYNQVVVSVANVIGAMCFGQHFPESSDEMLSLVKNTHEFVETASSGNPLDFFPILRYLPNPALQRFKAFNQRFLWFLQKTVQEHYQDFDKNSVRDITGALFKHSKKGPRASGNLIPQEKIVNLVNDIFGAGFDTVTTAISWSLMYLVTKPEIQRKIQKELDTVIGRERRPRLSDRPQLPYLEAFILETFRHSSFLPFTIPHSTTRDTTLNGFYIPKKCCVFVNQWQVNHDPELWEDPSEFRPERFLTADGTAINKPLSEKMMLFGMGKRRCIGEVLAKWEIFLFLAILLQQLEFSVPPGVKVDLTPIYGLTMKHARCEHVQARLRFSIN
# [10] = Stability in human liver microsomes assessed as compound remaining at 1 uM after 30 mins by LC/MS analysis; type: ADME; settings: read-out: Stability
# [11] = target: T1, Sodium-dependent serotonin transporter; settings: HEK293, at 10 µM
# Target sequence in this assay (P31645 whole entry, looked up): as the sequence (P31645 whole entry, looked up) above
# Cytochrome P450 2C19 = Cytochrome P450 2C19 (Homo sapiens, UniProt P33261)
# Chain of Cytochrome P450 2C19 (P33261 whole entry): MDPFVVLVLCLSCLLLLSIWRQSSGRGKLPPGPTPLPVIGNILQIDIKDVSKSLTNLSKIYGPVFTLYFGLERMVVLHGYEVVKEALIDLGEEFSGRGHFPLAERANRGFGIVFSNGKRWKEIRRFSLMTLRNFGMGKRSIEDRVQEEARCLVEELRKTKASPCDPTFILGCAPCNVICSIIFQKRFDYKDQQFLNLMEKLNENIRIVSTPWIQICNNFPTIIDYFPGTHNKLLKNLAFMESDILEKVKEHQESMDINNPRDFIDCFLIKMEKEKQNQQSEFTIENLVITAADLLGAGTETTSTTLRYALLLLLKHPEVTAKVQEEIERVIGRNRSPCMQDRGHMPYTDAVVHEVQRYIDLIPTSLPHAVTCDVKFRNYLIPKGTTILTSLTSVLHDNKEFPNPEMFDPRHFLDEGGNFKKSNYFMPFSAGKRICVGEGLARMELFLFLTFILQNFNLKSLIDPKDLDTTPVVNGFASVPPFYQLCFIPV
# CYP2D6 = CYP2D6 (Homo sapiens, UniProt P10635); assay: in vitro; settings: recombinant CYP2D6
# CYP2C19 = CYP2C19 (Homo sapiens, UniProt P33261); assay: in vitro; settings: recombinant CYP2C19
# Chain of CYP2C19 (P33261 whole entry): as above
# CYP3A4 = CYP3A4 (Homo sapiens, UniProt P08684); assay: in vitro; settings: recombinant CYP3A4
# Chain of CYP3A4 (P08684 whole entry): as the sequence (P08684 whole entry) above
# [12] = target: Voltage-gated inwardly rectifying potassium channel KCNH2 (Homo sapiens, UniProt Q12809); assay: Inhibition of human ERG expressed in CHO-K1 cells by patch-clamp electrophysiology method; type: cell-based
# CYP1A2 = target: T4, CYP1A2 (Homo sapiens, UniProt P05177); assay: in vitro; settings: recombinant CYP1A2
# T4 sequence (P05177 whole entry): T3 sequence (P05177 whole entry)
# CYP2C9 = CYP2C9 (Homo sapiens, UniProt P11712); assay: in vitro; settings: recombinant CYP2C9
# Chain of CYP2C9 (P11712 whole entry): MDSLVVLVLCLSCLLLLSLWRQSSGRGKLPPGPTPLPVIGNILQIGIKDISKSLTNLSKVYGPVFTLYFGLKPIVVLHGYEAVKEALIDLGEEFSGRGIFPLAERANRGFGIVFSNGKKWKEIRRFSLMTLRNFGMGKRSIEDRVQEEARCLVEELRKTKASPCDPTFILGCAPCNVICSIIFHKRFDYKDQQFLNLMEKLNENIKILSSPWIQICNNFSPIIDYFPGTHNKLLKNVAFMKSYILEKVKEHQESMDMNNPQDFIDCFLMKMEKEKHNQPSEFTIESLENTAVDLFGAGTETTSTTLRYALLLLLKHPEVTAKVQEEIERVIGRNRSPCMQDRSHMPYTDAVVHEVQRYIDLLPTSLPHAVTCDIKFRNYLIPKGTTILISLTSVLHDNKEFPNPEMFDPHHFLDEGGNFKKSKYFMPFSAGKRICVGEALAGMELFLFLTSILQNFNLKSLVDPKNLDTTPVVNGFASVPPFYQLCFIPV
# Chain of Sodium-dependent dopamine transporter (Q01959 whole entry): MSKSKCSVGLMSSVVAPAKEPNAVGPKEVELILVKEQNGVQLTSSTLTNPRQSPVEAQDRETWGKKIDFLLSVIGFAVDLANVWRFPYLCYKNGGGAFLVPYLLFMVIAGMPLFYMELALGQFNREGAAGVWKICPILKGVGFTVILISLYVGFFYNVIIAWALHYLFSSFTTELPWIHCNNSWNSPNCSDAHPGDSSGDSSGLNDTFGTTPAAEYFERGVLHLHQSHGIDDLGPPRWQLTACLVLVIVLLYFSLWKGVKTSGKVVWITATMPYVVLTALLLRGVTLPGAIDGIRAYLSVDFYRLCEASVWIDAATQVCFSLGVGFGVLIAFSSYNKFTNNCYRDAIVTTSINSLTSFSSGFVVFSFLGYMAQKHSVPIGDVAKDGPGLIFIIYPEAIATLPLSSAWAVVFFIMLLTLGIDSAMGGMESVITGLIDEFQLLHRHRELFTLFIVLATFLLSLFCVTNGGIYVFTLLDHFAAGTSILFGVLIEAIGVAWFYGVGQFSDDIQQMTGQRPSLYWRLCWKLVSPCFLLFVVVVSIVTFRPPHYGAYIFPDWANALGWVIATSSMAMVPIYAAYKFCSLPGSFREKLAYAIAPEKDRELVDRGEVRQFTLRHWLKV
# Chain of Cytochrome P450 2C9 (P11712 whole entry): as the sequence (P11712 whole entry) above
SMILES,IC50 (Cytochrome P450 2C9) [nM],IC50 [1] [nM],inhibition [2] [%],IC50 [3] [nM],Ratio IC50 [4],IC50 (Cytochrome P450 2D6) [nM],IC50 [5] [nM],Ratio IC50 [6],Ratio IC50 [7],IC50 (Cytochrome P450 3A4) [nM],Ratio IC50 [8],inhibition [9] [%],IC50 (Cytochrome P450 1A2) [nM],"remaining at 0.5 h, 1 µM [10] [%]",inhibition [11] [%],IC50 (Cytochrome P450 2C19) [nM],inhibition at 10 µM (CYP2D6) [%],inhibition at 10 µM (CYP2C19) [%],inhibition at 10 µM (CYP3A4) [%],inhibition at 10 µM (CYP1A2) [%],also measured
Fc1ccc(OC(CC2CNC2)c2ccc(Cl)c(F)c2)cc1 (stereo unspecified),2400,143,72,58.1,> 7,1000,32.5,> 7,> 7,400,> 7,100,19000,85,100,1300,,,,,
Fc1cc(C(CC2CNC2)Oc2ccccc2F)ccc1Cl (stereo unspecified),2200,63.9,77,46.3,> 7,8700,15.9,> 7,> 7,710,> 7,100,44000,71,100,250,9.6,7,7.2,33,IC50 [12]: 1410 nM; inhibition at 10 µM (CYP2C9): 12%
Fc1cc(C(CC2CNC2)Oc2cccc(Cl)c2)ccc1Cl (stereo unspecified),1100,82.5,87,47.1,> 7,530,30,> 7,> 7,600,> 7,100,15000,57,100,250,7.9,3.3,13,40,inhibition at 10 µM (CYP2C9): 4.2%
Fc1cccc(OC(CC2CNC2)c2ccc(Cl)c(F)c2)c1 (stereo unspecified),3100,35.6,98,36.6,> 7,4000,14.6,> 7,> 7,510,> 7,100,13000,73,100,210,13,6.4,11,30,IC50 [12]: 1460 nM; inhibition at 10 µM (CYP2C9): 11%
